According to USRE48461E1, “Modulation of androgen receptor expression” (Ionis Pharmaceuticals, Inc., priority 2012, dated 2021):
Oligonucleotides are written 5' to 3', each unit as a sugar letter and its base; * is a phosphorothioate linkage, no mark a phosphodiester; rarer units and linkages stand in square brackets, end groups in braces. Plain capitals give the bases only. k = constrained ethyl (cEt); [5mC] = 5-methylcytosine; d = 2'-deoxy (DNA)

Tests used:
Assay type in all cases: cell-based, human
C4-2B MR cells = experiment: Proliferation of MDV3100-resistant C4-2B cells (CellTiter 96); conditions: 6 days
Method in brief: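 Antisense oligonucleotides were added to the culture medium at 0.04, 0.20, 1.00 and 5.00 μM, with a non-targeting oligonucleotide as negative control. After 6 days of treatment, proliferation was read with CellTiter 96 AQueous One. Values are percent inhibition relative to untreated cells.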

AR mRNA = AR mRNA levels in LMR20 cells (with/without DHT or R1881); conditions: for AR mRNA levels (% baseline value) after treatment with DHT / AR mRNA levels (% baseline value) after treatment with R1881 / AR mRNA levels (% baseline value) of cells without AR agonist treatment: LMR20 cells; for AR mRNA levels (% baseline value) after treatment with DHT: DHT 10 nM 72 hrs; for AR mRNA levels (% baseline value) after treatment with R1881: R1881 10 nM 72 hrs; for AR mRNA levels (% baseline value) of cells without AR agonist treatment: no AR agonist
Procedure: (§1) LMR20 cells were plated at 1,500 cells per well in phenol red-free medium with CSS.

TMPRSS2 mRNA = TMPRSS2 mRNA levels in LMR20 cells; conditions: for TMPRSS2 mRNA levels (% baseline value) after treatment with DHT / TMPRSS2 mRNA levels (% baseline value) after treatment with R1881 / TMPRSS2 mRNA levels (% baseline value) of cells without AR agonist treatment: LMR20 cells; for TMPRSS2 mRNA levels (% baseline value) after treatment with DHT: DHT 10 nM 72 hrs; for TMPRSS2 mRNA levels (% baseline value) after treatment with R1881: R1881 10 nM 72 hrs; for TMPRSS2 mRNA levels (% baseline value) of cells without AR agonist treatment: no AR agonist
Procedure: as §1

In the case of “549372 (kA*kA*kG*dT*dT*dG*dT*dA*dG*dT*dA*dG*dT*k[5mC]*kG*k[5mC]) [compound 549372]”, the “Percent inhibition of C4-2B MR cell proliferation” value (from here on “Percent inhibition”) (C4-2B MR cells; 0.04 μM) was 0%, the “Percent inhibition” value (C4-2B MR cells; 0.20 μM) was 4% and the “Percent inhibition” value (C4-2B MR cells; 1.00 μM) was 25%. For the same substance, the “Percent inhibition” value (C4-2B MR cells; 5.00 μM) was 43%.
“549458 (kG*kT*kT*dG*dA*dT*dT*dT*dA*dA*dT*dG*dG*kT*kT*kG) [compound 549458]” was tested, and the “Percent inhibition” value (C4-2B MR cells; 0.04 μM) was 8%, the “Percent inhibition” value (C4-2B MR cells; 0.20 μM) was 16% and the “Percent inhibition” value (C4-2B MR cells; 1.00 μM) was 41%. The “Percent inhibition” value (C4-2B MR cells; 5.00 μM) was 56%, the “AR mRNA levels (% baseline value) after treatment with DHT” value (AR mRNA; ASO 0.04 μM) was 91 % baseline value and the “AR mRNA levels (% baseline value) after treatment with DHT” value (AR mRNA; ASO 0.20 μM) was 66 % baseline value. The “AR mRNA levels (% baseline value) after treatment with DHT” value (AR mRNA; ASO 1.0 μM) was 34 % baseline value, the “AR mRNA levels (% baseline value) after treatment with DHT” value (AR mRNA; ASO 5.0 μM) was 31 % baseline value and the “AR mRNA levels (% baseline value) after treatment with R1881” value (AR mRNA; ASO 0.04 μM) was 88 % baseline value. For the same substance, the “AR mRNA levels (% baseline value) after treatment with R1881” value (AR mRNA; ASO 0.20 μM) was 56 % baseline value, the “AR mRNA levels (% baseline value) after treatment with R1881” value (AR mRNA; ASO 1.0 μM) was 25 % baseline value and the “AR mRNA levels (% baseline value) after treatment with R1881” value (AR mRNA; ASO 5.0 μM) was 32 % baseline value. The “AR mRNA levels (% baseline value) of cells without AR agonist treatment” value (AR mRNA; ASO 0.04 μM) was 101 % baseline value, the “AR mRNA levels (% baseline value) of cells without AR agonist treatment” value (AR mRNA; ASO 0.20 μM) was 75 % baseline value and the “AR mRNA levels (% baseline value) of cells without AR agonist treatment” value (AR mRNA; ASO 1.0 μM) was 30 % baseline value. For the same substance, the “AR mRNA levels (% baseline value) of cells without AR agonist treatment” value (AR mRNA; ASO 5.0 μM) was 25 % baseline value, the “TMPRSS2 mRNA levels (% baseline value) after treatment with DHT” value (TMPRSS2 mRNA; ASO 0.04 μM) was 127 % baseline value and the “TMPRSS2 mRNA levels (% baseline value) after treatment with DHT” value (TMPRSS2 mRNA; ASO 0.20 μM) was 119 % baseline value. The “TMPRSS2 mRNA levels (% baseline value) after treatment with DHT” value (TMPRSS2 mRNA; ASO 1.0 μM) was 106 % baseline value, the “TMPRSS2 mRNA levels (% baseline value) after treatment with DHT” value (TMPRSS2 mRNA; ASO 5.0 μM) was 91 % baseline value and the “TMPRSS2 mRNA levels (% baseline value) after treatment with R1881” value (TMPRSS2 mRNA; ASO 0.04 μM) was 137 % baseline value. The “TMPRSS2 mRNA levels (% baseline value) after treatment with R1881” value (TMPRSS2 mRNA; ASO 0.20 μM) was 119 % baseline value, the “TMPRSS2 mRNA levels (% baseline value) after treatment with R1881” value (TMPRSS2 mRNA; ASO 1.0 μM) was 96 % baseline value and the “TMPRSS2 mRNA levels (% baseline value) after treatment with R1881” value (TMPRSS2 mRNA; ASO 5.0 μM) was 96 % baseline value. For the same substance, the “TMPRSS2 mRNA levels (% baseline value) of cells without AR agonist treatment” value (TMPRSS2 mRNA; ASO 0.04 μM) was 110 % baseline value, the “TMPRSS2 mRNA levels (% baseline value) of cells without AR agonist treatment” value (TMPRSS2 mRNA; ASO 0.20 μM) was 85 % baseline value and the “TMPRSS2 mRNA levels (% baseline value) of cells without AR agonist treatment” value (TMPRSS2 mRNA; ASO 1.0 μM) was 54 % baseline value. The “TMPRSS2 mRNA levels (% baseline value) of cells without AR agonist treatment” value (TMPRSS2 mRNA; ASO 5.0 μM) was 62 % baseline value.
In the case of “GTTGATTTAATGGTTG (all phosphorothioate, sugars by position not given here; further chemistry not fully specified) [ISIS 549458]”, the “proliferation of C4-2B MR cells” value (C4-2B MR cells; 0.04-5.00 μM) was “reduced proliferation of the cells in a dose dependent manner more extensively than treatment with ISIS 554221”, the “AR mRNA levels in LMR20 cells” value (AR mRNA; with or without DHT/R1881) was “reduced AR mRNA levels in LMR20 cells, treated with or without either AR agonist, in a dose dependent manner relative to the baseline” and the “TMPRSS2 mRNA levels in LMR20 cells” value (TMPRSS2 mRNA; with or without DHT/R1881) was “reduced PSA levels and TMPRSS2 more extensively than the LNA gapmer ISIS 554221 or MDV3100”.
